Measurements from US20140193824A1, “High-Resolution Clonal Typing of Escherichia coli” (priority 2013, published 2014).
Read-outs that look alike come from different tables or passages of the source.

Tests used:
[1] = test system: clinical E. coli isolates; assay: Antimicrobial susceptibility by disk diffusion testing (CLSI criteria) of clinical E. coli isolates; format: cell-based, Escherichia coli; settings: for Observed Resistance rate: rate of resistant isolates among 1,413 nonsingleton isolates of the primary collection
Protocol: (Veterans Affairs Medical Center).
Antimicrobial susceptibility profiles were determined using disk diffusion testing.
The prevalence of susceptibility to individual agents was calculated for the total primary collection, for individual participating laboratories, and for individual CH clonotypes. Odds ratios (ORs) were calculated for each subgroup (i.e., laboratory or clonotype) relative to the rest of the population. If the OR was >2 or <0.5, its statistical significance was evaluated using Fisher's exact test.

[2] = test system: clinical E. coli isolates; assay: Clonotype-guided (CH, fumC-fimH) prediction of antimicrobial resistance, primary collection, >=80% clonotype susceptibility cutoff; design: species or system Escherichia coli; settings: for Resistance among allowed isolates (actual prevalence of resistance): allowed population; for Resistance among rejected isolates: rejected population
Protocol: (§1) Antimicrobial susceptibility profiles were determined using disk diffusion testing. The interpretive criteria were those specified by the Clinical and Laboratory Standards Institute (CLSI).
Internal (<500 bp) regions of fumC and fimH were amplified by PCR, and the DNA sequences were determined by Sanger sequencing. Each unique combination of fumC and fimH alleles defined a CH clonotype. The diversity of the clonotype distribution was evaluated using the Simpson's modified alpha-diversity index.
(§2) Each isolate in the primary collection was classified as resistant or susceptible to each of the 11 antimicrobials based on the prevalence of susceptibility to the particular antimicrobial in the rest of isolates belonging to the same clonotype (i.e., for each isolate classification, the susceptibility of the corresponding clonotype was recalculated by excluding the profile of the isolate to be classified). Thus, clonotype-guided antibiotic selection was evaluated only for isolates from clonotypes comprising greater than or equal to 2 isolates.

[3] = test system: clinical E. coli isolates
Description: The primary set of 1,518 recent clinical E. coli isolates consisted of consecutive single-patient human extraintestinal isolates recovered between October 2010 and June 2011 at five clinical microbiology laboratories serving distinct patient populations in Seattle, Wash. (Group Health Cooperative, Harborview Medical Center, Seattle Children's Hospital, and the University of Washington Medical Center), and Minneapolis, Minn. (Veterans Affairs Medical Center). […] Another set of E. coli isolates was obtained from the University Hospital in Munster, Germany, and consisted of 161 consecutive isolates from urine samples recovered from July to September 2012.
as §1, §2
To avoid potential self-selection bias in the analysis of these smaller groups, the susceptibility classification for the isolates in each subset was done after excluding the susceptibility profiles of that particular subset, i.e., by using the clonotype susceptibility profiles of the remaining isolates from common clonotypes (Table 4).

[4] = Harborview Med. Center, Seattle

## CO/N=C(\C(=O)N[C@@H]1C(=O)N2C(C(=O)O)=C(CSc3nc(=O)c(=O)[nH]n3C)CS[C@H]12)c1csc(N)n1 [CTR, ceftriaxone]
[1]
  Observed Resistance rate: 5.38%
[2]
  Resistance among allowed isolates (actual prevalence of resistance): 4.2%
  Resistance among rejected isolates: 31.1%

## gentamicin [GM]
[1]
  Observed Resistance rate: 8.92%
[2]
  Resistance among allowed isolates (actual prevalence of resistance): 4.3%
  Resistance among rejected isolates: 31.4%

## CN(C)[C@@H]1C(O)=C(C(N)=O)C(=O)[C@@]2(O)C(O)=C3C(=O)c4c(O)cccc4[C@@](C)(O)[C@H]3C[C@@H]12 [TET, tetracycline]
[1]
  Observed Resistance rate: 29.5%
[2]
  Resistance among allowed isolates (actual prevalence of resistance): 11.5%
  Resistance among rejected isolates: 48.0%

## O=C1CN(/N=C/c2ccc([N+](=O)[O-])o2)C(=O)N1 [NIT, nitrofurantoin]
[1]
  Observed Resistance rate: 6.79%
[2]
  Resistance among allowed isolates (actual prevalence of resistance): 5.5%
  Resistance among rejected isolates: 27.4%

## trimethoprim-sulfamethoxazole [T/S]
[3]; Children's Hospital, Seattle
  Resistance among allowed isolates: 14.2%
[3]; Group Health Co-op, Seattle
  Resistance among allowed isolates: 5.0%
  Resistance among rejected isolates: 36.2%
[3]; [4]
  Resistance among allowed isolates: 7.4%
[3]; Univ. of Münster, Münster
  Resistance among allowed isolates: 14.3%
[3]; Univ. of Washington, Seattle
  Resistance among allowed isolates: 11.4%
  Resistance among rejected isolates: 62.6%
[3]; VA Med. Center, Minneapolis
  Resistance among allowed isolates: 17.0%
[3]; mean over the laboratories
  Actual prevalence of resistance among allowed isolates, mean: 12.1%
[1]; Children's Hospital, Seattle
  Total Resistant: 34.2%
[1]; Group Health Co-op, Seattle
  Total Resistant: 20.1%
[1]; [4]
  Total Resistant: 30.4%
[1]; Univ. of Münster, Münster, 161 urine isolates
  Total Resistant: 32.6%
[1]; Univ. of Washington, Seattle
  Total Resistant: 33.3%
[1]; VA Med. Center, Minneapolis
  Total Resistant: 34.0%
[1]
  Observed Resistance rate: 26.9%

## amoxicillin-clavulanate [A/K]
[1]
  Observed Resistance rate: 25.5%

## Cc1nnc(SCC2=C(C(=O)O)N3C(=O)[C@@H](NC(=O)Cn4cnnn4)[C@H]3SC2)s1 [CZ, cefazolin]
[1]
  Observed Resistance rate: 19.7%
[2]
  Resistance among allowed isolates (actual prevalence of resistance): 10.7%
  Resistance among rejected isolates: 32.0%

## ampicillin-sulbactam [A/S]
[1]
  Observed Resistance rate: 29.4%
[2]
  Resistance among allowed isolates (actual prevalence of resistance): 13.0%
  Resistance among rejected isolates: 37.9%

## CC1(C)S[C@@H]2[C@H](NC(=O)[C@H](N)c3ccccc3)C(=O)N2[C@H]1C(=O)O [AMP, ampicillin]
[1]
  Observed Resistance rate: 51.6%
[2]
  Resistance among allowed isolates (actual prevalence of resistance): 21.9%
  Resistance among rejected isolates: 60.1%

## piperacillin-tazobactam [PTZ]
[1]
  Observed Resistance rate: 3.96%
[2]
  Resistance among allowed isolates (actual prevalence of resistance): 3.8%
  Resistance among rejected isolates: 13.3%
